The values below come from patent US20090099167A1, “Organic compounds” (Novartis Institutes for Biomedical Research, priority 2004, published 2009).

The target of one assay is T1, human RET (Homo sapiens, UniProt P07949).
T1 construct: fused on or other part: N-terminal GST tag (pFB-GSTX3 vector)
Put plainly: RET kinase inhibition, GST-wtRET or GST-RET-Men2B, 33P incorporation into poly(Glu,Tyr). It counts as biochemical. As to conditions: Table 4. As for the experimental part: The inhibition of RET is measured as follows: The baculovirus donor vector pFB-GSTX3 is used to generate a recombinant baculovirus that expresses the amino acid region 658-1072 (Swiss prot No. Q9BTB0) of the intra-cytoplasmic kinase domain of human RET-Men2A which corresponds to the wild-type kinase domain of RET (wtRET) and RET-Men2B, which differs from the wtRET by the activating mutation in the activation loop M918T. The coding sequences for the cytoplasmic domain of wtRET and RET-Men2B are amplified by PCR from the plasmids pBABEpuro RET-Men2A and pBABEpuro RET-Men2B. The amplified DNA fragments and the pFB-GSTX3 vector are made compatible for ligation by digestion with SalI and KpnI. Ligation of these DNA fragments results in the baculovirus donor plasmid pFB-GX3-RET-Men2A and pFB-GX3-RET-Men2B, respectively. Production of virus: Transfer vectors containing the kinase domains are transfected into the DH10Bac cell line (GIBCO) and plated on selective agar plates. Colonies without insertion of the fusion sequence into the viral genome (carried by the bacteria) are blue. Single, white colonies are picked and viral DNA (bacmid) are isolated from the bacteria by standard plasmid purification procedures. Sf9 cells or Sf21 (American Type Culture Collection) cells are then transfected in 25 cm^2 flasks with the viral DNA using Cellfectin reagent. Determination of small scale protein expression in Sf9 cells: Virus-containing media is collected from the transfected cell culture and used for infection to increase its titer. Virus-containing media obtained after two rounds of infection is used for large-scale protein expression. For large-scale protein expression 100 cm^2 round tissue culture plates are seeded with 5×10^7 cells/plate and infected with 1 mL of virus-containing media (approximately 5 MOIs). After 3 days, the cells are scraped off the plate and centrifuged at 500 rpm for 5 minutes. Cell pellets from 10-20, 100 cm^2 plates, are re-suspended in 50 mL of ice-cold lysis buffer (25 mM tris-HCl, pH 7.5, 2 mM EDTA, 1% NP-40, 1 mM DTT, 1 mM P MSF). The cells are stirred on ice for 15 minutes and then centrifuged at 5,000 rpms for 20 minutes. Purification of GST-tagged proteins: The centrifuged cell lysate is loaded onto a 2 mL glutathione-sepharose column (Pharmacia) and is washed 3× with 10 mL of 25 mM tris-HCl, pH 7.5, 2 mM EDTA, 1 mM DTT, 200 mM NaCl. The GST-tagged proteins are then eluted by 10 applications (1 mL each) of 25 mM tris-HCl, pH 7.5, 10 mM reduced-glutathione, 100 mM NaCl, 1 mM DTT, 10% glycerol and stored at −70° C. Measure of enzyme activity: Tyrosine protein kinase assays with either purified GST-wtRET or GST-RET-Men2B protein are carried out in a final volume of 30 μL containing 15 ng of either GST-wtRET or GST-RET-Men2B protein, 20 mM tris-HCl, pH 7.5, 1 mM MnCl2, 10 mM MgCl2, 1 mM DTT, 3 μg/mL poly(Glu,Tyr) 4:1, 1% DMSO, 2.0 μM ATP (γ-[^33P]-ATP 0.1 μCi). The activity is assayed in the presence or absence of inhibitors, by measuring the incorporation of ^33P from [γ^33P] ATP into poly(Glu,Tyr) 4:1. The assay is carried out in 96-well plates at ambient temperature for 15 minutes under conditions described below and terminated by the addition of 20 μL of 125 mM EDTA. Subsequently, 40 μL of the reaction mixture are transferred onto Immobilon-PVDF membrane (Millipore) previously soaked for 5 minutes with methanol, rinsed with water, then soaked for 5 minutes with 0.5% H3PO4 and mounted on vacuum manifold with disconnected vacuum source. After spotting all samples, vacuum is connected and each well-rinsed with 200 μL 0.5% H3PO4. Membranes are removed and washed 4× on a shaker with 1.0% H3PO4, once with ethanol. Membranes are counted after drying at ambient temperature, mounting in Packard TopCount 96-well frame, and addition of 10 μL/well of Microscint™ (Packard). IC50 values are calculated by linear regression analysis of the percentage inhibition of each compound in duplicate, at 4 concentrations (usually 0.01, 0.1, 1 and 10 μM). […]

For assay [1], the target named is T2, human VEGF-R2 receptor (KDR) (Homo sapiens, UniProt P35968).
T2 construct: expressed in transfected cells; host or cells: CHO cells
T2 sequence (P35968 20-1356): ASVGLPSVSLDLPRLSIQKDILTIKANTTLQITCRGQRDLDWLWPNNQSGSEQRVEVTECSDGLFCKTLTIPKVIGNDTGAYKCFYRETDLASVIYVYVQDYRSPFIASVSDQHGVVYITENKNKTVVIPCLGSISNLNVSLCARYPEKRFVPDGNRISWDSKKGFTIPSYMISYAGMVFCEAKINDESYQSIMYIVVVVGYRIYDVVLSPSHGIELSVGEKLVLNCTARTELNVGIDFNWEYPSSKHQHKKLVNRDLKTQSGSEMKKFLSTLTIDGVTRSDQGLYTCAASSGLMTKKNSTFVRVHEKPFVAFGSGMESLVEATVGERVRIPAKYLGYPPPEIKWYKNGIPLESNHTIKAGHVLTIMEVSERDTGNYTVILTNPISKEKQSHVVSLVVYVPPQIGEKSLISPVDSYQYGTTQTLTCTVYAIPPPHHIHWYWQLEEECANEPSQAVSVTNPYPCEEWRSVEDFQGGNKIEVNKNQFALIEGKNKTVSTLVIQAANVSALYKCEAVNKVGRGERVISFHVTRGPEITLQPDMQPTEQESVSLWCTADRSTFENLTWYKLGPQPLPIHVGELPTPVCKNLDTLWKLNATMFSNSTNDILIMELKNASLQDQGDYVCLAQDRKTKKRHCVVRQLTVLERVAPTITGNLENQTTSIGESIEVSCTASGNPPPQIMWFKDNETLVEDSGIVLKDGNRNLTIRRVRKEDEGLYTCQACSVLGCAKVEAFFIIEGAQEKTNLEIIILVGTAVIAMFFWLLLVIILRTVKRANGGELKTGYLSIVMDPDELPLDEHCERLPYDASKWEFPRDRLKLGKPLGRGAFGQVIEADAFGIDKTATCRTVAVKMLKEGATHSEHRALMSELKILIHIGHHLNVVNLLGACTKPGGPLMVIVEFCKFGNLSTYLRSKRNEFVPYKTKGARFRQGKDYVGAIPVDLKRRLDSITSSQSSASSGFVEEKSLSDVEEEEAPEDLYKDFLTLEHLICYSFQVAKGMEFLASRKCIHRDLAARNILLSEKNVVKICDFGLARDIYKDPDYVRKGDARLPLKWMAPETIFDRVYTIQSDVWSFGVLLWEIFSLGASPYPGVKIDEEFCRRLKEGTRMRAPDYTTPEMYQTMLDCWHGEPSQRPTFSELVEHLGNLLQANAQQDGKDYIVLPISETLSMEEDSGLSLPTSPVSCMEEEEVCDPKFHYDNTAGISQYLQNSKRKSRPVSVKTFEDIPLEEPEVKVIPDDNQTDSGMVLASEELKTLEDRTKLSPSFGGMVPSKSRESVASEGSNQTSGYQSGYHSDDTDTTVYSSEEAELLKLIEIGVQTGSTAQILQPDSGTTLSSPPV
Put plainly: VEGF-induced KDR autophosphorylation in transfected CHO cells, sandwich ELISA. As to conditions: Table 4; read-out: KDR, activity (IC50 for kinase inhibition). It is filed as cell-based.

T1 sequence (P07949 1-1072 isoform P07949-2): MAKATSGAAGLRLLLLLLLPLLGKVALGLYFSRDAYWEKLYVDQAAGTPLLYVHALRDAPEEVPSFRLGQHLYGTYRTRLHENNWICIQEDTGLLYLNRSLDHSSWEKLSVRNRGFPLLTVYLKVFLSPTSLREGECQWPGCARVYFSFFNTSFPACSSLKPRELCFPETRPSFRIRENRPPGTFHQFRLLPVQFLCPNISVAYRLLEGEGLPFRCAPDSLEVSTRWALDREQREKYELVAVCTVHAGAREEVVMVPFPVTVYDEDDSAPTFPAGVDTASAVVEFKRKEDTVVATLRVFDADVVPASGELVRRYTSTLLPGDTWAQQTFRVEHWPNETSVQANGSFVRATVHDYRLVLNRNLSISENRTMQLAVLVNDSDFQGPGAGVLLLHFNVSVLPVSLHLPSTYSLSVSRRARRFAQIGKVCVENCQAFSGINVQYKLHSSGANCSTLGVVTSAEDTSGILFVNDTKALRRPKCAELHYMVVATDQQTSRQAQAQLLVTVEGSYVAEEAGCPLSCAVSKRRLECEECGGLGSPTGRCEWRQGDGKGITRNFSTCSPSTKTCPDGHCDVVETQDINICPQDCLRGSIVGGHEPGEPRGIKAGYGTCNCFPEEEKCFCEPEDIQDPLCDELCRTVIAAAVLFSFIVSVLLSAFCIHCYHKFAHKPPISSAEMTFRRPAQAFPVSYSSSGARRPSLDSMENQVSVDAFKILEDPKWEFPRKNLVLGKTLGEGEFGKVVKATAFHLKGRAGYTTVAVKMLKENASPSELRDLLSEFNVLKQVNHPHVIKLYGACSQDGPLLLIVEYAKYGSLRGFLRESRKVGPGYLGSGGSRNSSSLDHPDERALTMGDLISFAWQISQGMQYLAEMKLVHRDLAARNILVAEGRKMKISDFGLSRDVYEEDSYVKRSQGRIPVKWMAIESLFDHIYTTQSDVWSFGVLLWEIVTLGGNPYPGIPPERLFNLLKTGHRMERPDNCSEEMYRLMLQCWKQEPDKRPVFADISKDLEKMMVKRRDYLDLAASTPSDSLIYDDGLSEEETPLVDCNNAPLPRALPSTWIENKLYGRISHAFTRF

Take `CN1CCN(c2ccc(-c3cnn4c(N)c(-c5cccc(O)c5)cnc34)cc2)CC1` [Example 1, 3-{7-Amino-3-[4-(4-methyl-piperazin-1-yl)-phenyl]-pyrazolo[1,5-a]pyrimidin-6-yl}-phenol]: the half-maximal inhibitory concentration (IC50) (on human RET; in assay [1]) was less than 10 µM throughout.

In the case of `CN1CCN(c2cccc(-c3cnn4c(N)c(-c5cccc(O)c5)cnc34)c2)CC1` [Example 29, 3-{7-Amino-3-[3-(4-methyl-piperazin-1-yl)-phenyl]-pyrazolo[1,5-a]pyrimidin-6-yl}-phenol], the IC50 (against human RET; in assay [1]) was less than 10 µM each time.

Turning to `CN1CCN(c2cccc(-c3cnn4c(N)c(-c5ccc(O)cc5)cnc34)c2)CC1` [Example 39, 4-{7-Amino-3-[3-(4-methyl-piperazin-1-yl)-phenyl]-pyrazolo[1,5-a]pyrimidin-6-yl}-phenol], the concentration for half-maximal inhibition (IC50) against human RET was less than 10 µM.

For `Nc1c(-c2cccc(O)c2)cnc2c(-c3cccnc3)cnn12` [Example 46, 3-[7-Amino-3-pyridin-3-yl-pyrazolo[1,5-a]pyrimidin-6-yl]-phenol], the IC50 in assay [1] is less than 10 µM.

`COc1ccccc1-c1cnn2c(N)c(-c3cccc(O)c3)cnc12` [Example 48, 3-[7-Amino-3-(2-methoxy-phenyl)-pyrazolo[1,5-a]pyrimidin-6-yl]-phenol]: on human RET, the concentration for half-maximal inhibition (IC50) was less than 10 µM.
